In brackets after ≈: the same amount, converted by molar mass. Where a name gives a salt, the structure may show the parent alone.
Test system: H37Rv strain of M. tuberculosis
Assay: Alamar Blue Susceptibility Test (MABA)
Format: cell-based
Settings: H37Rv strain of M. tuberculosis, Alamar Blue; for MIC: Mycobacterium tuberculosis, read-out: MABA (TB growth inhibition, colourimetric assay)

Row | Structure (SMILES) | MIC [µM] | MABA (TB growth inhibition, colourimetric assay)
1 | Clc1ccc(CNc2nc(N3CCCCC3)c3ccccc3n2)cc1 [Compound 110, N-(4-Chlorobenzyl)-4-(piperidin-1-yl)quinazolin-2-amine hydrochloride] | 10 to 50 | 
2 | Fc1ccc(CNc2nc(NCCN3CCCCC3)nc3ccccc23)cc1 [Compound 209, N^4-(4-Fluorobenzyl)-N^2-(2-(piperidin-1-yl)ethyl)quinazoline-2,4-diamine hydrochloride] | 50 to 128 | 
3 | c1ccc2c(NC34CC5CC(CC(C5)C3)C4)nc(N3CCOCC3)nc2c1 [Compound 61, N-(1′-Adamantyl)-2-(morpholino)quinazolin-4-amine] |  | +++ (10-50 μM=+++)
4 | CC(C)(C)OC(=O)N1CCCN(c2nc(NCc3ccccc3)c3ccccc3n2)CC1 [Compound 55, tert-Butyl 4-(4-(benzylamino)quinazolin-2-yl)-1,4-diazepane-1-carboxylate] | 10 to 50 (≈ 4.34 to 21.7 µg/mL) | 
5 | COc1cccc(CNc2nc(N3CCCCC3)nc3ccccc23)c1 [Compound 82, N-(3-Methoxybenzyl)-2-(piperidin-1-yl)quinazolin-4-amine hydrochloride] | 10 to 50 | 
6 | COc1ccccc1CNc1nc(N2CCCCC2)nc2ccccc12 [Compound 81, N-(2-Methoxybenzyl)-2-(piperidin-1-yl)quinazolin-4-amine hydrochloride] | 10 to 50 | 
7 | COc1cc2c(cc1OC)CN(c1nc(N3CCCCC3)nc3ccccc13)CC2 [Compound 192, 4-(6,7-Dimethoxy-3,4-dihydroisoquinolin-2(1H)-yl)-2-(piperidin-1-yl)quinazoline] | 10 to 50 (≈ 4.05 to 20.2 µg/mL) | 
8 | Fc1ccc(C2(Nc3nc(N4CCC(F)(F)CC4)nc4ccccc34)CC2)cc1 [Compound 153, 2-(4,4-Difluoropiperidin-1-yl)-N-(1-(4-fluorophenyl)cyclopropyl)quinazolin-4-amine] | 50 to 128 (≈ 19.9 to 51 µg/mL) | 
9 | Fc1ccc(CNc2nc(N3CCN(Cc4ccccc4)CC3)nc3ccccc23)cc1 [Compound 201, 2-(4-Benzylpiperazin-1-yl)-N-(4-fluorobenzyl)quinazolin-4-amine] | 10 to 50 (≈ 4.28 to 21.4 µg/mL) | 
10 | Clc1cccc2nc(N3CCCCC3)nc(NCc3ccccc3)c12 [Compound 107, N-Benzyl-5-chloro-2-(piperidin-1-yl)quinazolin-4-amine] | 10 to 50 (≈ 3.53 to 17.6 µg/mL) | 
11 | O=C1CCN(c2nc(NCc3ccccc3)c3ccccc3n2)CC1 [Compound 139, 1-(4-(Benzylamino)quinazolin-2-yl)piperidin-4-one] | < 10 | 
12 | CCN(CC)c1nc(NCc2ccccc2)c2ccccc2n1 [Compound 25, N^4-Benzyl-N^2,N^2-diethylquinazoline-2,4-diamine] | 10 to 50 (≈ 3.06 to 15.3 µg/mL) | 
13 | c1ccc(CNc2nc(N3CCSCC3)nc3ccccc23)cc1 [Compound 140, N-Benzyl-2-thiomorpholinoquinazolin-4-amine hydrochloride] | < 10 | 
14 | Fc1ccc(CNc2nc(NCC3CCCCC3)nc3ccccc23)cc1 [Compound 208, N^2-(Cyclohexylmethyl)-N^4-(4-fluorobenzyl)quinazoline-2,4-diamine] | 10 to 50 (≈ 3.64 to 18.2 µg/mL) | 
15 | c1ccc(C(Nc2nc(N3CCCCC3)nc3ccccc23)c2ccccc2)cc1 [Compound 50, N-Benzhydryl-2-(piperidin-1-yl)quinazolin-4-amine] | 10 to 50 (≈ 3.95 to 19.7 µg/mL) | 
16 | OC[C@H](Nc1nc(N2CCCCC2)nc2ccccc12)c1ccccc1 [Compound 145, (R)-2-Phenyl-2-(2-(piperidin-1-yl)quinazolin-4-ylamino)ethanol hydrochloride] | 50 to 128 | 
17 | c1ccc(CNc2nc(N3CCCOCC3)nc3ccccc23)cc1 [Compound 52, N-Benzyl-2-(1,4-oxazepan-4-yl)quinazolin-4-amine] | 10 to 50 (≈ 3.34 to 16.7 µg/mL) | 
18 | COC(=O)[C@@H]1CCCN1c1nc(NCc2ccc(F)cc2)c2ccccc2n1 [Compound 200, (S)-Methyl 1-(4-(4-fluorobenzylamino)quinazolin-2-yl)pyrrolidine-2-carboxylate] | 50 to 128 (≈ 19 to 48.7 µg/mL) | 
19 | COc1cc2c(cc1OC)CN(c1nc(N3CCCC3)nc3ccccc13)CC2 [Compound 188, 4-(6,7-Dimethoxy-3,4-dihydroisoquinolin-2(1H)-yl)-2-(pyrrolidin-1-yl)quinazoline] | 10 to 50 (≈ 3.9 to 19.5 µg/mL) | 
20 | Fc1ccc(CNc2nc(NCc3ccccc3)c3ccccc3n2)cc1 [Compound 126, N^4-Benzyl-N^2-(4-fluorobenzyl)quinazoline-2,4-diamine hydrochloride] | 10 to 50 | 
21 | OC[C@H](Cc1ccccc1)Nc1nc(N2CCCCC2)nc2ccccc12 [Compound 143, (S)-3-Phenyl-2-(2-(piperidin-1-yl)quinazolin-4-ylamino)propan-1-ol hydrochloride] | 10 to 50 | 
22 | Fc1ccc(C2(Nc3nc(N4CCCCC4)nc4ccccc34)CC2)cc1 [Compound 152, N-(1-(4-Fluorophenyl)cyclopropyl)-2-(piperidin-1-yl)quinazolin-4-amine] | 10 to 50 (≈ 3.62 to 18.1 µg/mL) | 
23 | Fc1ccc(CNc2nc(N3CCC(F)(F)CC3)c3ccccc3n2)c(F)c1 [Compound 148, N-(2,4-Difluorobenzyl)-4-(4,4-difluoropiperidin-1-yl)quinazolin-2-amine] | 10 to 50 (≈ 3.9 to 19.5 µg/mL) | 
24 | Clc1ccc(C2(Nc3nc(N4CCCC4)nc4ccccc34)CC2)cc1 [Compound 142, N-(1-(4-Chlorophenyl)cyclopropyl)-2-(pyrrolidin-1-yl)quinazolin-4-amine hydrochloride] | 10 to 50 | 

Row | Structure (SMILES) | MIC [µM] | MABA (TB growth inhibition, colourimetric assay)
25 | CCCNc1nc(NCc2ccccc2)c2ccccc2n1 [Compound 67, N^4-Benzyl-N^2-propylquinazoline-2,4-diamine] | 10 to 50 (≈ 2.92 to 14.6 µg/mL) | 
26 | CC(C)(C)OC(=O)N1CCc2c(nc(N3CCCCC3)nc2NCc2ccc(F)cc2)C1 [Compound 184, tert-Butyl 4-(4-fluorobenzylamino)-2-(piperidin-1-yl)-5,6-dihydropyrido[3,4-d]pyrimidine-7(8H)-carboxylate] | 50 to 128 (≈ 22.1 to 56.5 µg/mL) | 
27 | O=C(C1CCCCC1)N1CCN(c2nc(NCc3ccc(F)cc3)c3ccccc3n2)CC1 [Compound 203, Cyclohexyl(4-(4-(4-fluorobenzylamino)quinazolin-2-yl)piperazin-1-yl)methanone] | 10 to 50 (≈ 4.48 to 22.4 µg/mL) | 
28 | c1ccc(CNc2nc(N3CCCCCC3)nc3ccccc23)cc1 [Compound 197, 2-(Azepan-1-yl)-N-benzylquinazolin-4-amine] | 10 to 50 (≈ 3.32 to 16.6 µg/mL) | 
29 | Fc1ccc(CNc2nc(N3CCCC3)nc3cccc(Cl)c23)cc1 [Compound 182, 5-Chloro-N-(4-fluorobenzyl)-2-(pyrrolidin-1-yl)quinazolin-4-amine] | 10 to 50 (≈ 3.57 to 17.8 µg/mL) | 
30 | Fc1ccc(CNc2nc(N3CCC(F)(F)CC3)nc3cc(F)ccc23)cc1 [Compound 156, 2-(4,4-Difluoropiperidin-1-yl)-7-fluoro-N-(4-fluorobenzyl)quinazolin-4-amine] | 10 to 50 (≈ 3.9 to 19.5 µg/mL) | 
31 | CS(=O)(=O)c1ccc(CNc2nc(N3CCCCC3)nc3ccccc23)cc1 [Compound 94, N-(4-(Methylsulfonyl)benzyl)-2-(piperidin-1-yl)quinazolin-4-amine] | 10 to 50 (≈ 3.97 to 19.8 µg/mL) | 
32 | c1ccc(C2(Nc3nc(N4CCCC4)nc4ccccc34)CC2)cc1 [Compound 123, N-(1-Phenylcyclopropyl)-2-(pyrrolidin-1-yl)quinazolin-4-amine] | 10 to 50 (≈ 3.3 to 16.5 µg/mL) | 
33 | Oc1ccc(CNc2nc(NCc3ccc(F)cc3)nc3ccccc23)cc1 [Compound 165, 4-((2-(4-Fluorobenzylamino)quinazolin-4-ylamino)methyl)phenol] | 10 to 50 (≈ 3.74 to 18.7 µg/mL) | 
34 | COc1cc2nc(N3CCC(F)(F)CC3)nc(NCc3ccc(F)cc3)c2cc1OC [Compound 151, 2-(4,4-Difluoropiperidin-1-yl)-N-(4-fluorobenzyl)-6,7-dimethoxyquinazolin-4-amine hydrochloride] | 10 to 50 | 
35 | Clc1ccc(CNc2nc(N3CCOCC3)nc3ccccc23)cc1 [Compound 74, N-(4-Chlorobenzyl)-2-morpholinoquinazolin-4-amine] | 10 to 50 (≈ 3.55 to 17.7 µg/mL) | 
36 | c1cncc(CNc2nc(N3CCCCC3)nc3ccccc23)c1 [Compound 47, 2-(Piperidin-1-yl)-N-(pyridin-3-ylmethyl)quinazolin-4-amine] | 50 to 128 (≈ 16 to 40.9 µg/mL) | 
37 | Cc1ccc([C@@H](C)Nc2nc(N3CCCCC3)nc3ccccc23)cc1 [Compound 101, (R)-2-(Piperidin-1-yl)-N-(1-p-tolylethyl)quinazolin-4-amine] | 10 to 50 (≈ 3.46 to 17.3 µg/mL) | 
38 | CCC(CC)(Nc1nc(N2CCCCC2)nc2ccccc12)c1ccccc1 [Compound 138, N-(3-Phenylpentan-3-yl)-2-(piperidin-1-yl)quinazolin-4-amine] | < 10 | 
39 | Clc1ccc(C2(Nc3nc(N4CCCCC4)nc4ccccc34)CC2)cc1 [Compound 141, N-(1-(4-Chlorophenyl)cyclopropyl)-2-(piperidin-1-yl)quinazolin-4-amine hydrochloride] | 10 to 50 | 
40 | Cc1ccc(C(C)(C)Nc2nc(N3CCCC3)nc3ccccc23)cc1 [Compound 103, 2-(Pyrrolidin-1-yl)-N-(2-p-tolylpropan-2-yl)quinazolin-4-amine] | 10 to 50 (≈ 3.46 to 17.3 µg/mL) | 
41 | Clc1ccc(CNc2nc(N3CCCCC3)nc3ccccc23)s1 [Compound 189, N-((5-Chlorothiophen-2-yl)methyl)-2-(piperidin-1-yl)quinazolin-4-amine] | < 10 | 
42 | Clc1ccc(CNc2nc(N3CCCC3)nc3ccccc23)cc1 [Compound 75, N-(4-Chlorobenzyl)-2-(pyrrolidin-1-yl)quinazolin-4-amine] | 10 to 50 (≈ 3.39 to 16.9 µg/mL) | 
43 | FC(F)(F)c1ccc(CNc2nc(N3CCCCC3)nc3ccccc23)cn1 [Compound 196, 2-(Piperidin-1-yl)-N-((6-(trifluoromethyl)pyridin-3-yl)methyl)quinazolin-4-amine hydrochloride] | 10 to 50 | 
44 | CC(C)(C)OC(=O)N1CCN(c2nc(NCc3ccccc3)c3ccccc3n2)CC1 [Compound 31, tert-Butyl 4-(4-(benzylamino)quinazolin-2-yl)piperazine-1-carboxylate] | 10 to 50 (≈ 4.2 to 21 µg/mL) | 
45 | c1ccc(C2CCN(c3nc(N4CCCCC4)nc4ccccc34)CC2)cc1 [Compound 90, 4-(4-Phenylpiperidin-1-yl)-2-(piperidin-1-yl)quinazoline] | 10 to 50 (≈ 3.73 to 18.6 µg/mL) | 
46 | FC(F)(F)c1ccc(CNc2nc(N3CCCCC3)nc3ccccc23)o1 [Compound 160, 2-(Piperidin-1-yl)-N-((5-(trifluoromethyl)furan-2-yl)methyl)quinazolin-4-amine hydrochloride] | < 10 | 
47 | C[C@H](Nc1nc(N2CCCCC2)nc2ccccc12)c1ccccc1 [Compound 32, (S)—N-(1-Phenylethyl)-2-(piperidin-1-yl)quinazolin-4-amine] | 10 to 50 (≈ 3.32 to 16.6 µg/mL) | 

Reference: patent US20100317607A1, “USE OF COMPOUNDS FOR PREPARING ANTI-TUBERCULOSIS AGENTS” (INFECTIOUS DISEASE RESEARCH INSTITUTE, priority 2007, published 2010)
